“And” between values parts separate entries of the source, which are not always exact repeats. Equal entries are not always repeated. The source made the active and inactive calls. The rule behind the calls is not given here.
target: glucose-6-phosphate dehydrogenase-6-phosphogluconolactonase (Plasmodium falciparum 3D7); assay: PfG6PD enzyme inhibitors, direct NADPH readout, SAR follow-up, orthogonal assay, biochemical, end-point NADPH detection (AID 588588); conditions: recombinant PfG6PD-6PGL

Compound | IC50
O=C(Nc1nnc(S(=O)(=O)N2CCCCCC2)s1)c1cccc(Br)c1 | > 80 µM (inactive)
CCN1CCC[C@@H]1CNC(=O)c1ccc2c(c1)NC(=O)/C(=C/c1ccccc1F)S2 | > 80 µM (inactive)
CCN1CCCC1CNC(=O)c1ccc2c(c1)NC(=O)CS2 (configuration not stated) | > 80 µM (inactive)
O=C1COc2ccc(C(=O)NCCN3CCCCC3)cc2N1 | > 80 µM (inactive)
CC1Cc2ccccc2N1S(=O)(=O)c1nnc(NC(=O)c2cccc(Br)c2)s1 (configuration not stated) | > 80 µM (inactive)
O=C(Nc1nnc(S(=O)(=O)N2CCCCC2)s1)c1cccc(F)c1 | > 80 µM (inactive)
O=C(Nc1nnc(S(=O)(=O)N2CCOCC2)s1)c1cccc(F)c1 | > 80 µM (inactive)
O=C1COc2ccc(C(=O)NCCN3CCOCC3)cc2N1 | > 80 µM (inactive)
Cc1cccc(/C=C2/Sc3ccc(C(=O)NCCN4CCCC4)cc3NC2=O)c1 | > 80 µM (inactive)
COc1cccc(/C=C2/Sc3ccc(C(=O)NCCN4CCCC4)cc3NC2=O)c1 | > 80 µM (inactive)
O=C1Nc2cc(C(=O)NCCN3CCCC3)ccc2S/C1=C\c1ccccc1F | > 80 µM (inactive)
Cc1ccc(C(=O)Nc2nnc(S(=O)(=O)N3CCCCCC3)s2)cc1 | > 80 µM (inactive)
O=C(Nc1nnc(S(=O)(=O)N2CCCCCC2)s1)c1ccccc1 | > 80 µM (inactive)
Cc1ccc(C(=O)Nc2nnc(S(=O)(=O)N3CCCc4ccccc43)s2)cc1 | > 80 µM (inactive)
O=C1Nc2cc(C(=O)NCCN3CCCCCC3)ccc2S/C1=C/c1ccccc1Cl | > 80 µM (inactive)
O=C(Nc1nnc(S(=O)(=O)N2CCCCCC2)s1)c1ccccc1F | > 80 µM (inactive)
O=C1Nc2cc(C(=O)NCCN3CCCC3)ccc2S/C1=C/c1ccccc1F | > 80 µM (inactive)
CCN1CCCC1CNC(=O)c1ccc2c(c1)NC(=O)/C(=C\c1ccccc1Cl)S2 (configuration not stated) | > 80 µM (inactive)
CCN1CCCC1CNC(=O)c1ccc2c(c1)NC(=O)/C(=C/c1cccc3ccccc13)S2 (configuration not stated) | > 80 µM (inactive)
O=C(Nc1nnc(S(=O)(=O)N2CCCCCC2)s1)c1cccc(F)c1 | > 80 µM (inactive)
CN(C)CCNC(=O)c1ccc2c(c1)NC(=O)/C(=C\c1ccccc1F)S2 | > 80 µM (inactive)
CCN1CCCC1CNC(=O)c1ccc2c(c1)NC(=O)/C(=C/c1ccccc1)S2 (configuration not stated) | > 80 µM (inactive)
Cc1cccc(C(=O)Nc2nnc(S(=O)(=O)N3CCCc4ccccc43)s2)c1 | > 80 µM (inactive)

Compound | IC50
CCN(CC)CCNC(=O)c1ccc2c(c1)NC(=O)CO2 | > 80 µM (inactive)
O=C1Nc2cc(C(=O)NCCN3CCCCC3)ccc2S/C1=C\c1ccccc1F | > 80 µM (inactive)
O=C(NCCN1CCCC1)c1ccc2c(c1)NC(=O)c1ccccc1O2 | > 80 µM (inactive)
O=C1Nc2cc(C(=O)NCc3ccccc3)ccc2S/C1=C\c1ccccc1F | > 80 µM (inactive)
O=C(NCCN1CCOCC1)c1ccc2c(c1)NC(=O)c1ccccc1O2 | > 80 µM (inactive)
Cc1cccc(C(=O)Nc2nnc(S(=O)(=O)N3CCC(C)CC3)s2)c1 | > 80 µM (inactive)
O=C1COc2ccc(C(=O)NCCN3CCCC3)cc2N1 | > 80 µM (inactive)
CCN1CCC[C@H]1CNC(=O)c1ccc2c(c1)NC(=O)/C(=C/c1ccccc1F)S2 | > 80 µM (inactive)
O=C(Nc1nnc(S(=O)(=O)N2CCCCCC2)s1)c1ccco1 | > 80 µM (inactive)
COc1ccc(C(=O)Nc2nnc(S(=O)(=O)N3CCCCCC3)s2)cc1 | > 80 µM (inactive)
O=C(Nc1nnc(S(=O)(=O)N2CCCCCC2)s1)c1ccc(F)cc1 | > 80 µM (inactive)
COc1ccc(/C=C2/Sc3ccc(C(=O)NCCN4CCCCCC4)cc3NC2=O)cc1 | > 80 µM (inactive)
Cc1ccccc1C(=O)Nc1nnc(S(=O)(=O)N2CCCc3ccccc32)s1 | > 80 µM (inactive)
Cc1ccc(C(=O)Nc2nnc(S(=O)(=O)N3c4ccccc4CC3C)s2)cc1 (configuration not stated) | > 80 µM (inactive)
CCN1CCCC1CNC(=O)c1ccc2c(c1)NC(=O)/C(=C/c1ccccc1OC)S2 (configuration not stated) | > 80 µM (inactive)
CCOc1ccc(C(=O)Nc2nnc(S(=O)(=O)N3CCCCCC3)s2)cc1 | > 80 µM (inactive)
O=C(Nc1nnc(S(=O)(=O)N2CCCCCC2)s1)c1cccc(Cl)c1 | > 80 µM (inactive)
CN(C)CCNC(=O)c1ccc2c(c1)NC(=O)/C(=C/c1ccccc1F)S2 | > 80 µM (inactive)
COc1cccc(C(=O)Nc2nnc(S(=O)(=O)N3CCCCCC3)s2)c1 | > 80 µM (inactive)
Cc1cccc(C(=O)Nc2nnc(S(=O)(=O)N3CCOCC3)s2)c1 | > 80 µM (inactive)
O=C(NCCN1CCCCC1)c1ccc2c(c1)NC(=O)c1ccccc1O2 | 50.3 µM
COc1ccc(C(=O)Nc2nnc(S(=O)(=O)N3CCCCCC3)s2)cc1OC | > 80 µM (inactive)

Continued, values first:

IC50 | Compound
> 80 µM (inactive) | CCN(CC)CCNC(=O)c1ccc2c(c1)NC(=O)c1ccccc1O2
> 80 µM (inactive) | CCN(CC)CCNC(=O)c1ccc2c(c1)NC(=O)/C(=C\c1cccc(C)c1)S2
67.3 µM and 69.8 µM | CCN(CC)CCNC(=O)c1ccc2c(c1)NC(=O)c1ccccc1S2
> 80 µM (inactive) | CCN(CCNC(=O)c1ccc2c(c1)NC(=O)c1ccccc1S2)c1ccccc1
> 80 µM (inactive) | CCCN(CCC)CCNC(=O)c1ccc2c(c1)NC(=O)/C(=C/c1ccccc1)S2
> 80 µM (inactive) | CCN(CC)CCNC(=O)c1ccc2c(c1)NC(=O)/C(=C\c1ccc(OC)cc1)S2
> 80 µM (inactive) | CCN1CCCC1CNC(=O)c1ccc2c(c1)N(Cc1ccc(C(F)(F)F)cc1)C(=O)c1ccccc1S2 (configuration not stated)
> 80 µM (inactive) | CCN(CCNC(=O)c1ccc2c(c1)N(Cc1cc(C)ccc1C)C(=O)c1ccccc1S2)c1ccccc1
> 80 µM (inactive) | CCCN(CCC)CCNC(=O)c1ccc2c(c1)NC(=O)/C(=C\c1ccc(C)cc1)S2
> 80 µM (inactive) | CCN(CC)CCNC(=O)c1ccc2c(c1)N(Cc1ccc(C)cc1)C(=O)c1ccccc1S2
> 80 µM (inactive) | CCN(CC)CCNC(=O)c1ccc2c(c1)NC(=O)/C(=C\c1ccccc1Cl)S2
> 80 µM (inactive) | CCN1CCCC1CNC(=O)c1ccc2c(c1)N(Cc1ccccc1Cl)C(=O)c1ccccc1S2 (configuration not stated)
> 80 µM (inactive) | CCN(CCNC(=O)c1ccc2c(c1)N(CC)C(=O)c1ccccc1S2)c1ccccc1
> 80 µM (inactive) | Cc1cccc(N2CCN(CCNC(=O)c3ccc4c(c3)NC(=O)c3ccccc3S4)CC2)c1C
6.22 µM | CCC(C)N(CCNC(=O)c1ccc2c(c1)NC(=O)c1ccccc1S2)C1CCCCC1 (configuration not stated)
> 80 µM (inactive) | CCN(CC)CCNC(=O)c1ccc2c(c1)N(Cc1cc(C)ccc1C)C(=O)c1ccccc1S2
> 80 µM (inactive) | CCN1CCCC1CNC(=O)c1ccc2c(c1)N(Cc1cccc(F)c1)C(=O)c1ccccc1S2 (configuration not stated)
> 80 µM (inactive) | O=C(NCCN1CCCC1)c1ccc2c(c1)NC(=O)c1ccccc1S2
> 80 µM (inactive) | CN(CCNC(=O)c1ccc2c(c1)NC(=O)c1ccccc1S2)C1CCCCC1
> 80 µM (inactive) | CCN(CC)CCNC(=O)c1ccc2c(c1)NC(=O)/C(=C\c1ccc(OC)c(OC)c1)S2
> 80 µM (inactive) | CCN(CC)CCNC(=O)c1ccc2c(c1)NC(=O)/C(=C\c1ccccc1F)S2
> 80 µM (inactive) | CCN(CC)CCNC(=O)c1ccc2c(c1)NC(=O)/C(=C/c1ccccc1)S2

Reference: PubChem BioAssay AID588588 (Sanford-Burnham Center for Chemical Genomics, 2011)
